Tests used:
[1] = test system: Ba/F3 CD74-ROS1 L2026M cell line; test: Cell proliferation assay (CellTiter-Glo); format: cell-based; conditions: Mus musculus, BaF3, 72 h, read-out: Cell proliferation of Ba/F3 CD74-ROS1 L2026M cell line IC50
DDR2 = biological target: T1, DDR2 (Homo sapiens, UniProt Q16832); test: Biochemical kinase assay (Reaction Biology); conditions: 10 μM ATP
T1 construct: purchased Reaction Biology Corporation (contract assay)

AKT = test: Immunoblotting downstream signaling, KM12 cells; format: cell-based; conditions: Homo sapiens; KM12 cell line; read-out: downstream AKT phosphorylation IC50
Description: (§1) NSCLC cell line H2228 (harboring endogenous EML4-ALK fusion gene), HCC78 cells (harboring endogenous SLC34A2-ROS1 fusion gene), Karpas-299 cells (harboring endogenous NPM-ALK fusion gene) or SET-2 (harboring endogenous JAK2V617F activating mutation) were cultured in RPMI medium, and KM12 (harboring endogenous TPM3-TRKA fusion gene) cell line was cultured in DMEM medium, both supplemented with 10% fetal bovine serum and 100 U/mL of penicillin/streptomycin. Ba/F3 and NIH3T3 cells stably expressing ALK or ROS1 (WT or mutant) were culture as mentioned above. […] Protein lysates (approximately 20 μg) was resolved on 4-12% Bolt Bis-Tris precasted gels with MES running buffer (Life Technologies), transferred to nitrocellulose membranes using Trans-Blot Turbo Transfer System (Bio-Rad) and detected with antibodies targeting phosphorylated ALK Y1604 (Cell Signaling Technology), total ALK (Cell Signaling Technology), phosphorylated ROS1 and total ROS1 (Cell Signaling Technology), phosphorylated TRK A/B (Cell Signaling Technology), total TRKA antibody (Santa Cruz Biotechnology), phosphorylated STAT3 and STAT5, total STAT3 and STAT5 (Cell Signaling Technology), phosphorylated AKT (Cell Signaling Technology), total AKT (Cell Signaling Technology), phosphorylated ERK (Cell Signaling Technology), total ERK (Cell Signaling Technology) and Tubulin (Sigma). […]

ERK = test: Immunoblotting downstream signaling, KM12 cells; format: cell-based; conditions: Homo sapiens; KM12 cell line; read-out: downstream ERK phosphorylation IC50
Description: as §1

[2] = test system: NIH3T3 EML4-ALK WT tumors; test: NIH3T3 EML4-ALK WT subcutaneous xenograft model; format: in vivo, athymic nude mice; conditions: 12 days
[3] = test system: Ba/F3 EML4-ALK G1202R tumors; test: Ba/F3 EML4-ALK G1202R subcutaneous xenograft model; format: in vivo, SCID/Beige mice; conditions: 75 mg/kg BID orally, 17 days
EGFR = EGFR expression by immunoblotting in H2228 cells; format: cell-based, human; conditions: 4 and 24 hour exposure, 0-1000 nM
Description: NSCLC cell line H2228 (harboring endogenous EML4-ALK fusion gene) was cultured in RPMI medium supplemented with 10% fetal bovine serum and 100 U/mL of penicillin/streptomycin. Ba/F3 and NIH3T3 cells stably expressing ROS1, or TRKA, or TRKB, or TRKC (WT or mutant) were cultured as mentioned above. […] Cells were collected after treatment and lysed in RIPA buffer (50 mM Tris, pH 7.4, 150 mM NaCl, 1% NP-40, 0.5% Deoxycholate, 0.1% SDS) supplemented with 10 mM EDTA, 1× Halt protease and phosphatase inhibitors (Thermo Scientific). Protein lysates (approximately 20 μg) was resolved on 4-12% Bolt Bis-Tris precasted gels with MES running buffer (Life Technologies), transferred to nitrocellulose membranes using Trans-Blot Turbo Transfer System (Bio-Rad) and detected with antibodies targeting phosphorylated phosphorylated ROS1 and total ROS1 (Cell Signaling Technology), phosphorylated TRK A/B (Cell Signaling Technology), total TRKA antibody (Santa Cruz Biotechnology), phosphorylated SRC Y416 (Cell Signaling Technology), total SRC (Cell Signaling Technology), phosphorylated FAK Y576/577 (Cell Signaling Technology), total FAK (Cell Signaling Technology), phosphorylated paxillin Y118 (Cell Signaling Technology), total paxillin (Cell Signaling Technology), phosphorylated EGFR and total EGFR, CD44, and Tubulin (Sigma). […]

[4] = test system: Ba/F3 TEL-TRKB (ETV6-TRKB) G639R cell line; test: Cell proliferation assay (CellTiter-Glo); format: cell-based; conditions: Mus musculus, BaF3; 72 hours

T1 sequence (Q16832 22-855): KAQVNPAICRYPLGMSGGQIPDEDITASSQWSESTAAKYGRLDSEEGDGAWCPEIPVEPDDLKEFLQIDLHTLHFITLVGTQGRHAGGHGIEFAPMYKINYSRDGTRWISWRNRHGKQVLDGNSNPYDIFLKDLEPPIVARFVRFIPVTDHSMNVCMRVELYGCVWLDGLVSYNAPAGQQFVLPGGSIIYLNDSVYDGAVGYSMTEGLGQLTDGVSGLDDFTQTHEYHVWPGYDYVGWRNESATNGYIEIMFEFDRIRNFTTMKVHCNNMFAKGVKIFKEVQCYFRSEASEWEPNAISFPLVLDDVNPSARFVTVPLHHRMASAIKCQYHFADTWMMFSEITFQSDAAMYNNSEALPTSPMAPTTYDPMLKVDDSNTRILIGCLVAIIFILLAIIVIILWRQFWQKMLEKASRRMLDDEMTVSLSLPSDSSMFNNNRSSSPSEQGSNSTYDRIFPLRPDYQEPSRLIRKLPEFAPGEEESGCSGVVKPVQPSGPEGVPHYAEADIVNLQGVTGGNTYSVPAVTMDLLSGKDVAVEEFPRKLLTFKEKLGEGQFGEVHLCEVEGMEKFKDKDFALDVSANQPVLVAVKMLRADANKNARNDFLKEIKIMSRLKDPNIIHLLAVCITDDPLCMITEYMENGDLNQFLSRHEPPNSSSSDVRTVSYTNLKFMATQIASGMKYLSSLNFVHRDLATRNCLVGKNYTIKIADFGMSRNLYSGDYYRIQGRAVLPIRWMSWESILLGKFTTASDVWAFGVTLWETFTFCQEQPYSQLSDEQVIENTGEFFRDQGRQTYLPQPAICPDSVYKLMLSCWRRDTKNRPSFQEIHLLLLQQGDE

With `C[C@H]1CNC(=O)c2cnn3ccc(nc23)N[C@H](C)c2cc(F)ccc2O1` [Compound 1, (7S,13R)-11-fluoro-7,13-dimethyl-6,7,13,14-tetrahydro-1,15-ethenopyrazolo[4,3-f][1,4,8,10]benzoxatriazacyclotridecin-4(5H)-one] the IC50 [1] was […], the IC50 (DDR2) was 23 nM and the IC50 (AKT) was roughly 0.3 nM. The IC50 (ERK) was roughly 0.3 nM, the “mice exhibiting tumor regression” value ([2]; 15 mg/kg/BID orally) was 2 of 8 and the “mice exhibiting tumor regression” value ([2]; 50 mg/kg/BID orally) was 8 of 8. For the same compound, the “tumor regression (REG)” value ([2]; 50 mg/kg/BID orally) was 41%, the “mice exhibiting tumor regression” value [3] was 4 of 8 and the EGFR expression (EGFR) was “down-regulated EGFR expression in a dose- and time-dependent manner”. The IC50 [4] was 0.6 nM.
